Where only a bound is given, the exact number is not on record here.

This note sets out measurements from patent publication EP4806894A1, “TNAP INHIBITORY COMPOUND AND USE THEREOF” (Rednvia Co., Ltd., priority 2023, dated 2025).

The subject of assay [1] is C57BL/6 mouse. In words: Vitamin D-induced calcification mouse animal model (aortic valve histopathology). The following applies: for blackened area (von Kossa staining, increased calcification): Figure 2, versus high-dose vitamin D3-induced calcification group (B); for Number of inflammatory cells (cells/mm^2): aortic valve area; for Number of inflammatory cells (cells/mm^2) / Mean thickness (µm): HE staining; for Number of inflammatory cells (cells/mm^2) / Mean thickness (µm) / Calcified area (%/mm^2): vitamin D3 6.5x10^5 IU/Kg s.c. for 3 days, compound orally once a day for 8 days, mouse; for Mean thickness (µm) / Calcified area (%/mm^2): aortic valve; for Calcified area (%/mm^2): von Kossa staining. In kind it is in vivo. On the procedure:
(§1) Individual heart samples were cut crosswise, one section at a time, around the origin/root region of the ascending aorta. Histological sections were then prepared from all the samples received. All cross-sectioned cardiac-aortic valve sections were refixed in 10% neutral buffered formalin for 24 hours to prepare histological samples. After the samples were embedded in paraffin, two serial sections of 3 to 4 µm thickness were prepared on each paraffin block and stained with hematoxylin & eosin (HE) for general histopathology or von Kossa (VK) for calcium deposition, respectively. To observe more detailed changes, a computer-assisted image analysis program and a histological camera system were used to calculate the mean aortic valve thickness (µm) and the number of inflammatory cells infiltrating the aortic valve area (cells/mm^2) in HE staining, and the mean calcified aortic valve area (%/mm^2) in VK staining in this histopathological analysis.
Experimental animals were prepared similarly to Experimental Example 3. Excluding the normal group, four groups were administered with high-dose (6.5x10^5 IU/Kg) vitamin D3 subcutaneously once a day for a total of 3 days to induce calcification. The compounds of Examples 1 and 6 were administered orally together from the first day of vitamin D3 administration, and then administered once a day for 5 more days without vitamin D3 administration, for a total of 8 days.
Samples were obtained and analyzed in the same manner as in Experimental Example 3.

In another assay the target is T1, TNAP (Homo sapiens, UniProt P05186).
T1 sequence (P05186 18-502 limits assumed): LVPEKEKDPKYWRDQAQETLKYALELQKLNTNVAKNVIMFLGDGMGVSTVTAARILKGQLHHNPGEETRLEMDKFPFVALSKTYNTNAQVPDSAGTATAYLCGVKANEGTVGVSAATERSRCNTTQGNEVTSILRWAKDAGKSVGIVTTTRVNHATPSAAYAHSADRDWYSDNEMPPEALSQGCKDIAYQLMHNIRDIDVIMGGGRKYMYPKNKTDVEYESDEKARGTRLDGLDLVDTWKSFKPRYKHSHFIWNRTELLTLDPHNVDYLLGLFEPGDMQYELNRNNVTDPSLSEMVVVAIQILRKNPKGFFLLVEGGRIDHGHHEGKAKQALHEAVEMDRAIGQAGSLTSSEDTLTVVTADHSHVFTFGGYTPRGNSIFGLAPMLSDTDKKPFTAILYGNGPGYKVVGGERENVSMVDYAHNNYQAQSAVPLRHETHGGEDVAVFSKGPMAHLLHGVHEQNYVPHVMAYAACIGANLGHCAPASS
The experiment in a line: TNAP inhibitory activity, colorimetric assay (alkaline phosphatase assay kit ab83369, pNPP substrate). In kind it is biochemical. The following applies: TNAP enzyme, 2 hours at room temperature, absorbance 405 nm.

The subject of a further assay is saos-2 cells. The experiment in a line: Anticalcification efficacy in saos-2 cells (osteogenic medium, Alizarin Red staining). Type of assay: cell-based. Conditions: test compound 1 µM, 7 days osteogenic medium, Alizarin Red absorbance 540 nm. A digest of the protocol:
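Saos-2 cells at 80–90% confluence induced for 7 days in osteogenic medium (DMEM, 100 nM dexamethasone, 10 mM β-glycerophosphate, 0.05 mM ascorbic acid), compound (0.5, 1, 5, 10 […]) added with each medium change. Alizarin Red staining eluted with cetylpyridinium chloride, A540 read; inhibition taken against OM-only absorbance.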

Assay [2] deals with C57BL/6 mouse. The experiment in a line: Warfarin-induced calcification mouse animal model (aortic valve histopathology). Type of assay: in vivo. Conditions: for blackened area (von Kossa staining, increased calcification): Figure 1, versus warfarin and vitamin K1-induced calcification group (B); for Number of inflammatory cells (cells/mm^2): aortic valve area; for Number of inflammatory cells (cells/mm^2) / Mean thickness (µm): HE staining; for Number of inflammatory cells (cells/mm^2) / Mean thickness (µm) / Calcified area (%/mm^2): warfarin and vitamin K1 for 4 weeks, C57BL/6 mouse; for Mean thickness (µm) / Calcified area (%/mm^2): aortic valve; for Calcified area (%/mm^2): von Kossa staining. The protocol: • 1. Animal: C57BL/6 mouse (OrientBio, Sungnam-city, Korea) • Gender: male • Age on arrival: C57BL/6 (6 weeks) • Raising: Animals were raised in filter cap polycarbonate cages, 5 animals each, in a temperature (25°C) and humidity (45-55%) controlled sterile clean room. The light:dark cycle was 12 hours:12 hours, and sterilized food and water were provided with free access. • Guidelines: All animals were treated in accordance with the Daegu Haany University Institutional Animal Care and Use Committee (Gyeongsan, Korea). • 2. General experimental methods: In vivo drug administration
After acclimating the mice for one week, they were divided into each group and tested.
After acclimation for one week, the groups were randomized.
The mice were divided into four groups: a group that received no treatment (A), a group that was treated with warfarin and vitamin K1 to induce calcification (B), a group that was administered orally with 0.5% CMC (carboxymethyl Cellulose) (C), and a group that was administered with the test compound. The compounds of Example 1 (K) and Example 6 (L) were selected as the test compound.
All groups, except the untreated control group (Normal), were administered both warfarin and vitamin K1 at 8:00 AM and warfarin alone at 8:00 PM for 4 weeks.
Heart tissue samples were obtained from each group and used for analysis.
as §1

For the compound “5-chloro-2-methoxy-N-(5-oxo-6,7-dihydro-5H-pyrrolo[3,4-b]pyridine-3-yl)benzenesulfonamide [Example 1]”, in the assay on C57BL/6 mouse [1], the “blackened area (von Kossa staining, increased calcification)” value is “significantly reduced”; the “Number of inflammatory cells (cells/mm^2)” value (shortened to “Number of inflammatory cells”) was 110.89±21.64 cells/mm^2; the “Mean thickness (µm)” value is 64.26±12.34 µm; the “Calcified area (%/mm^2)” value is on record as 7.95±1.16 %/mm^2. Further, the IC50 on TNAP lay within 10 to 100 nM. The calcification inhibition entry in the assay on saos-2 cells is “A (inhibition of 50% or more was expressed as "A")”. In the assay with C57BL/6 mouse [2], the “blackened area (von Kossa staining, increased calcification)” value is listed as “significantly reduced”; the “Number of inflammatory cells” value stood at 144.40±43.12 cells/mm^2; the “Mean thickness (µm)” value is recorded as 112.42±10.81 µm; the “Calcified area (%/mm^2)” value came out at 2.45±0.64 %/mm^2.
As for `COc1ccc(Cl)cc1S(=O)(=O)Nc1cnc2c(c1)C(=O)NCC2` [Example 6, 5-chloro-2-methoxy-N-(5-oxo-5,6,7,8-tetrahydro-1,6-naphthyridine-3-yl)benzenesulfonamide], in the assay on C57BL/6 mouse [1], the “blackened area (von Kossa staining, increased calcification)” value was “significantly reduced”; the “Number of inflammatory cells” value came out at 58.89±17.32 cells/mm^2; the “Mean thickness (µm)” value was determined as 51.76±10.39 µm; the “Calcified area (%/mm^2)” value worked out at 2.44±0.92 %/mm^2. On TNAP, the IC50 was not above 10 nM. In addition, the inhibition at 1 µM in the assay with saos-2 cells (Homo sapiens, 168 h, read-out: calcification inhibition) was not below 50%. In addition, in the assay with C57BL/6 mouse [2], the “blackened area (von Kossa staining, increased calcification)” value was “significantly reduced”; the “Number of inflammatory cells” value is reported as 80.40±14.90 cells/mm^2; the “Mean thickness (µm)” value was determined as 91.69±15.70 µm; the “Calcified area (%/mm^2)” value amounted to 1.16±0.30 %/mm^2.
